Experimental findings from US11447486B2, “2-amino-benzimidazole derivatives and their use as 5-lipoxygenase and/or prostaglandin E synthase inhibitors” (INSTITUT PASTEUR KOREA, priority 2014, dated 2022) are described below.

Assay [1] concerns the target T1, human 5-LOX (Homo sapiens, UniProt P09917).
T1 construct: purchased Cayman 60402; host or cells: insect cells (lysate)
T1 sequence (P09917 1-674): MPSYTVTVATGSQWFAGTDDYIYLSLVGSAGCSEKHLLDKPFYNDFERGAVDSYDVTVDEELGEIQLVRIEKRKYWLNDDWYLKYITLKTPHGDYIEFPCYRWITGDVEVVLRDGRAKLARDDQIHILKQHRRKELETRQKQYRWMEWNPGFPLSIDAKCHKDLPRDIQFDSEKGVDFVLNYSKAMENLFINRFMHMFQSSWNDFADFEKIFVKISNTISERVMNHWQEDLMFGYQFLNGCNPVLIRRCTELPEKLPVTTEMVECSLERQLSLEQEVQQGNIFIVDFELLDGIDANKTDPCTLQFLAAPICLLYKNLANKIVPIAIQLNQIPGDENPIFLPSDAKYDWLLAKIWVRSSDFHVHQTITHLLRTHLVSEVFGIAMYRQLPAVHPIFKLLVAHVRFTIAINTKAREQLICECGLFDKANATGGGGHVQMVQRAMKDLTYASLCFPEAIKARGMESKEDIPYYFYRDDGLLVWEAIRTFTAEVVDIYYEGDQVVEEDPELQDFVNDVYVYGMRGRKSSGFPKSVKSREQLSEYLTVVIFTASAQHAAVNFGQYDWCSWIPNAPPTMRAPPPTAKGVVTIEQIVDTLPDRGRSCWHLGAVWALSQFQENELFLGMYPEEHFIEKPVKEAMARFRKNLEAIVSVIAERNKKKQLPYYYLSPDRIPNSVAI
Nature of the assay: 5-LOX enzyme activity, fluorescence method (5-HPETE, H2DCFDA). The class given is biochemical. To be noted: read-out: 5-LO (IC50). The method in brief: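 Fluorescence-based read-out, run entirely at room temperature. Enzyme mixture was exposed to a dose range of compound from 0.5 nM to 10 uM for 5 min before ATP and arachidonic acid were added to final levels of 100 uM and 3 uM.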

For assay [2], the system named is Rat basophilic leukemia (RBL) cells. Description: LTB4 secretion assay in RBL (rat basophilic leukemia cells). The class given is cell-based. The method in brief:
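LTB4 released into supernatant was measured by EIA after 10 min at 37 °C with arachidonic acid (2.5 uM final) and calcium ionophore A23187 (5 uM final). Before stimulation, cells plated 2×10^4/well overnight received compound doses (5 nM to 100 uM) for 15 min in 0.5% FBS medium.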

The subject of assay [3] is Rat whole blood (RWB). Description: LTB4 secretion assay in RWB (rat whole blood). The class given is cell-based. The method in brief:
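LTB4 release was measured by EIA in supernatants of pooled, sodium heparin rat blood (male Sprague Dawley, 6-9 weeks) diluted 1:1 with RPMI. Compounds (2.5 nM to 50 uM) were added 15 min before A23187 (10 uM final), with 10 min stimulation at 37 °C before ice-cold PBS quench.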

Like-named read-outs stand apart in the source and are kept apart here.

The term IC50 denotes the concentration at which inhibition is half-maximal. As a reminder, the EC50 is the concentration that produces a half-maximal response. Turning to `Nc1ccc2nc(N)n(Cc3ccc(Oc4ccc(Cl)cc4)cn3)c2c1` [Compound 239], the IC50 in assay [1] is less than 1 µM. Further, the EC50 in assay [2] (Rattus norvegicus, RBL) is less than 10 µM; in assay [3] (Rattus norvegicus) it was less than 10 µM.
With `Nc1ccc2nc(N)n(Cc3ccc(Oc4ccc(Cl)nc4)cc3)c2c1` [Compound 238], the IC50 in assay [1] was less than 1 µM. The EC50 is less than 10 µM in assay [2] (Rattus norvegicus, RBL) and less than 10 µM in assay [3] (Rattus norvegicus).
Turning to `Nc1ccc2c(c1)nc(N)n2Cc1ccc(Oc2ccc(Cl)cn2)cc1` [Compound 199], the half-maximal inhibitory concentration (IC50) in assay [1] was less than 1 µM. Further, the EC50 in assay [2] (Rattus norvegicus, RBL) is less than 10 µM; in assay [3] (Rattus norvegicus), less than 10 µM.
With `Cn1nc(C(F)F)cc1Nc1ccc2nc(NCc3ccc(Oc4ncc(Cl)cn4)cc3)n(C)c2c1` [Compound 533], the IC50 in assay [1] was less than 1 µM. The EC50 in assay [2] (Rattus norvegicus, RBL) was less than 10 µM; in assay [3] (Rattus norvegicus), less than 10 µM.
Consider `Cc1cc(Nc2ccc3nc(NCc4ccc(Oc5ncc(OC(F)(F)F)cn5)cc4)n(C)c3c2)n[nH]1` [Compound 482], for which, in assay [1], the IC50 is less than 1 µM. The EC50 is less than 10 µM in assay [2] (Rattus norvegicus, RBL) and less than 10 µM in assay [3] (Rattus norvegicus).
Take `CC(Nc1ccc2nc(N(C)C)[nH]c2c1)c1ccc(Oc2ccc(Cl)cn2)cc1` (stereo not drawn) [Compound 152]: in assay [1], the IC50 was less than 1 µM. Further, the EC50 is less than 10 µM in assay [2] (Rattus norvegicus, RBL) and 10 to 20 µM in assay [3] (Rattus norvegicus).
`CC(C)(C)Nc1nc2ccc(N)cc2n1CCOc1ccc(OC(F)(F)F)cc1` [Compound 65]: the IC50 in assay [1] is less than 1 µM. Moreover, the EC50 in assay [2] (Rattus norvegicus, RBL) is less than 10 µM; in assay [3] (Rattus norvegicus), less than 10 µM.
As to `CCn1c(NCc2ccc(Oc3ncc(Cl)cn3)cc2)nc2ccc(Nc3n[nH]c(C)c3Cl)cc21` [Compound 512], the IC50 in assay [1] was less than 1 µM. Besides, the EC50 was less than 10 µM in assay [2] (Rattus norvegicus, RBL) and less than 10 µM in assay [3] (Rattus norvegicus).
Consider `Cn1c(NCc2ccc(Oc3ccc(Cl)cn3)cc2F)nc2ccc(NC3COC3)cc21` [Compound 273], for which the IC50 in assay [1] was less than 1 µM. In addition, the EC50 in assay [2] (Rattus norvegicus, RBL) was less than 10 µM; in assay [3] (Rattus norvegicus), 10 to 20 µM.
Regarding `CC(C)(O)CNc1nc2ccc(N)cc2n1Cc1ccc(Oc2ccc(Cl)cc2)cc1` [Compound 165], the IC50 in assay [1] is less than 1 µM. Further, the EC50 in assay [2] (Rattus norvegicus, RBL) was less than 10 µM; in assay [3] (Rattus norvegicus), less than 10 µM.
On to `Cn1c(NCc2ccc(Oc3ncc(Cl)cn3)cc2)nc2ccc(Nc3ccccn3)cc21` [Compound 447], for which, in assay [1], the IC50 was 1 to 10 µM. Also, the EC50 in assay [2] (Rattus norvegicus, RBL) was less than 10 µM; in assay [3] (Rattus norvegicus), less than 10 µM.
For `Cn1ccc(Nc2ccc3nc(NCc4ccc(Oc5ncc(Cl)cn5)cc4)n(C)c3c2)n1` [Compound 414], the IC50 in assay [1] is less than 1 µM. Moreover, the EC50 in assay [2] (Rattus norvegicus, RBL) was less than 10 µM; in assay [3] (Rattus norvegicus) it was less than 10 µM.
With `Cn1c(NCc2ccc(Oc3ncccn3)cc2)nc2ccc(NC3COC3)cc21` [Compound 345], the IC50 in assay [1] was less than 1 µM. Moreover, the 50% effective concentration (EC50) in assay [2] (Rattus norvegicus, RBL) is more than 20 µM; in assay [3] (Rattus norvegicus), less than 10 µM.
Take `CCn1c(NCc2ccc(Oc3ncc(C(F)(F)F)cn3)cc2)nc2ccc(Nc3cc(C(C)(C)C)[nH]n3)cc21` [Compound 513]: the IC50 in assay [1] is less than 1 µM. Besides, the EC50 in assay [2] and in assay [3] was less than 10 µM throughout.
With `Cn1c(NCc2ccc(Oc3ncc(Cl)cn3)cc2)nc2ccc(Nc3nc(C(F)(F)F)cs3)cc21` [Compound 494], the IC50 in assay [1] was in the range of 1 to 10 µM. Further, the EC50 is less than 10 µM in assay [2] (Rattus norvegicus, RBL) and less than 10 µM in assay [3] (Rattus norvegicus).
Consider `COCCn1c(NCc2ccc(Oc3ccc(Cl)cn3)cc2)nc2ccc(NC3COC3)cc21` [Compound 269], for which the IC50 in assay [1] is less than 1 µM. Besides, the EC50 in assay [2] (Rattus norvegicus, RBL) is less than 10 µM; in assay [3] (Rattus norvegicus), less than 10 µM.
With `Cc1[nH]nc(Nc2ccc3nc(NCc4ccc(Oc5ccc(Cl)cn5)cc4)n(C)c3c2)c1Cl` [Compound 518], the IC50 in assay [1] was more than 10 µM. The EC50 in assay [2] (Rattus norvegicus, RBL) is less than 10 µM; in assay [3] (Rattus norvegicus), less than 10 µM.
As to `CN(C)c1nc2cc(N)ccc2n1CCOc1ccc(Cl)cc1` [Compound 38], the IC50 in assay [1] was less than 1 µM. Also, the EC50 was less than 10 µM in assay [2] (Rattus norvegicus, RBL) and more than 20 µM in assay [3] (Rattus norvegicus).
As for `CNc1nc2ccc(N)cc2n1Cc1ccc(Oc2ccc(Cl)cc2)cc1` [Compound 219], the IC50 in assay [1] was less than 1 µM. For the same molecule, the EC50 in assay [2] (Rattus norvegicus, RBL) was less than 10 µM; in assay [3] (Rattus norvegicus) it was more than 20 µM.
For `Nc1ccc2[nH]c(NCc3ccc(Oc4ccccc4)cc3)nc2c1` [Compound 80], the IC50 in assay [1] was less than 1 µM. Also, the EC50 was less than 10 µM in assay [2] (Rattus norvegicus, RBL) and less than 10 µM in assay [3] (Rattus norvegicus).
As to `Cn1c(NCc2ccc(Oc3ccc(Cl)cc3)cn2)nc2ccc(NC3COC3)cc21` [Compound 298], in assay [1], the IC50 is less than 1 µM. Moreover, the EC50 in assay [2] (Rattus norvegicus, RBL) is less than 10 µM; in assay [3] (Rattus norvegicus) it was more than 20 µM.
For `Nc1nc2ccc(NC3COC3)cc2n1Cc1ccc(Oc2ccc(Cl)cn2)cc1` [Compound 234], in that order: less than 1 µM, less than 10 µM and less than 10 µM.
For the molecule `CCC(Nc1nc2ccc(Nc3cc(C4CC4)[nH]n3)cc2n1C)c1ccc(Oc2ncc(Cl)cn2)cc1` (stereo not drawn) [Compound 530], in assay [1], the IC50 is less than 1 µM. For the same molecule, the EC50 in assay [2] (Rattus norvegicus, RBL) was less than 10 µM; in assay [3] (Rattus norvegicus) it was less than 10 µM.
Take `Cn1c(NCc2ccc(Oc3ccc(Cl)cn3)cc2)nc2ccc(Nc3ccccn3)cc21` [Compound 448]: the IC50 in assay [1] was 1 to 10 µM. In addition, the EC50 was less than 10 µM in assay [2] (Rattus norvegicus, RBL) and less than 10 µM in assay [3] (Rattus norvegicus).
With `Cn1c(NCc2ccc(Oc3cnc(N)nc3)cc2)nc2ccc(NC3COC3)cc21` [Compound 369], the IC50 in assay [1] is less than 1 µM. In addition, the EC50 in assay [2] (Rattus norvegicus, RBL) was less than 10 µM; in assay [3] (Rattus norvegicus), less than 10 µM.
Take `Cc1cc(Nc2ccc3nc(NCc4ccc(Oc5ncc(Cl)cn5)c(Cl)c4)n(C)c3c2)n[nH]1` [Compound 473]: the IC50 in assay [1] is less than 1 µM. The EC50 in assay [2] (Rattus norvegicus, RBL) is less than 10 µM; in assay [3] (Rattus norvegicus) it was less than 10 µM.
Turning to `Cn1c(NCc2ccc(Oc3ncc(Cl)cn3)cc2)nc2ccc(N)cc21` [Compound 288], the IC50 in assay [1] is less than 1 µM. The EC50 in assay [2] (Rattus norvegicus, RBL) is less than 10 µM; in assay [3] (Rattus norvegicus) it was less than 10 µM.
Consider `Cn1c(NCCOc2ccc(OC(F)(F)F)cc2Cl)nc2cc(N)ccc21` [Compound 57], for which the IC50 in assay [1] was less than 1 µM. Besides, the EC50 is less than 10 µM in assay [2] (Rattus norvegicus, RBL) and more than 20 µM in assay [3] (Rattus norvegicus).
`Cc1cc(Nc2ccc3nc(NCc4ccc(Oc5ncc(Cl)cn5)cc4)n(C)c3c2)n[nH]1` [Compound 415]: the IC50 in assay [1] was less than 1 µM. Moreover, the EC50 in assay [2] (Rattus norvegicus, RBL) is less than 10 µM; in assay [3] (Rattus norvegicus), less than 10 µM.
`Cn1c(NCc2ccc(Oc3nc4ccccc4n3C)cc2)nc2ccc(NC3COC3)cc21` [Compound 357]: the IC50 in assay [1] was less than 1 µM. In addition, the EC50 is less than 10 µM in assay [2] (Rattus norvegicus, RBL) and 10 to 20 µM in assay [3] (Rattus norvegicus).
On the same counts, the results for `Clc1ccc(Oc2ccc(CNc3nc4cc(Nc5cn[nH]c5)ccc4[nH]3)cc2)cc1` [Compound 24] are less than 1 µM, less than 10 µM and less than 10 µM.
For `Cn1c(NCc2ccc(Oc3ncccn3)cc2)nc2ccc(N)cc21` [Compound 344], in that order: less than 1 µM, more than 20 µM and 10 to 20 µM.
On to `Cn1c(NCc2ccc(Oc3ccc(C(F)(F)F)cn3)cc2)nc2ccc(NC3COC3)cc21` [Compound 284], for which the IC50 in assay [1] is less than 1 µM. Besides, the EC50 is less than 10 µM in assay [2] (Rattus norvegicus, RBL) and less than 10 µM in assay [3] (Rattus norvegicus).
With `Cn1c(NCc2ccc(Oc3ncc(Cl)cn3)cc2)nc2ccc(Nc3cc(C(C)(C)C)[nH]n3)cc21` [Compound 469], the IC50 in assay [1] is less than 1 µM. The EC50 was less than 10 µM in assay [2] (Rattus norvegicus, RBL) and less than 10 µM in assay [3] (Rattus norvegicus).
